Tests used:
[1] = Plasma and tumor concentrations of AMG 510 (LC-MS/MS); type: in vivo, mouse; details: tumor-bearing mice; single oral dose 10 mg/kg
Protocol: Tumor tissue homogenates were prepared by adding water to tissue (4:1 mL:g) using tungsten carbide beads in a TissueLyzer (Qiagen). To 20 μL of sample (plasma or tumor tissue homogenate), 100 μL acetonitrile containing IS (200 ng/mL tolbutamide) was added, the sample was vortexed for 10 min, centrifuged at 3500 g for 10 min, and 90 μL of supernatant was collected. To the collected supernatant 100 μL of water (containing 0.1% formic acid) was added, and 5 μL of the resulting solution was injected onto the LC-MS/MS system. Chromatographic separations were achieved using a Phenomenex Kinetex C18 50×2.1 mm, 2.7 μm, maintained at 50° C., using 0.1% formic acid in H2O (mobile phase A) and 0.1% formic acid in acetonitrile (mobile phase B). […] Peak areas were integrated using Analyst® (Sciex).

[2] = test system: MAPK, EGFR, AKT, S6, caspase-3 signaling in NCI-H358 and MIA PaCa-2; test: Western blots of cellular signaling nodes; type: cell-based, human; details: 0.1 μM; both lines
Source text: This shifted species accumulated with increasing time and dose and was consistent with downstream inhibition of the MAPK pathway (i.e. p-MEK1/2 and p-ERK1/2) in both cell lines (FIGS. 41A and 41B).

[3] = test system: ERK1/2 phosphorylation in NCI-H358 tumors; test: Tumor pharmacodynamic assay (p-ERK, MSD immunoassay); details: Mus musculus, NCI-H358, po, 2 h, read-out: inhibition of p-ERK, reduction compared to control

SMILES: C=CC(=O)N1CCN(c2nc(=O)n(-c3c(C)ccnc3C(C)C)c3nc(-c4c(O)cccc4F)c(F)cc23)[C@@H](C)C1 (atropisomer, axis not shown) [AMG 510, 6-fluoro-7-(2-fluoro-6-hydroxyphenyl)-1-(4-methyl-2-(2-propanyl)-3-pyridinyl)-4-((2S)-2-methyl-4-(2-propenoyl)-1-piperazinyl)pyrido[2,3-d]pyrimidin-2(1H)-one]
- time of peak plasma and tumor exposure [1]: 0.5 h
- duration of effects on MAPK and EGFR [2]: > 24 h
- onset of effects on MAPK and EGFR [2]: < 2 h
- time at which p-S6 and caspase-cleavage effects emerged [2]: 8 to 16 h
- inhibition at 100 mg/kg [3]: 83%
